Article PMC6073854, “Role of Arginine 117 in Substrate Recognition by Human Cytochrome P450 2J2” (International Journal of Molecular Sciences, 2018)
Numbering of substitutions follows the chain as printed. Values joined by “and” are separate entries in the source; they are usually repeats but may differ in a detail not shown here. Identical values can stand only once.

What was measured:
CYP2J2-R117E = target: T1, CYP2J2-R117E (Homo sapiens, UniProt P51589, R117E); experiment: biochemical
T1 sequence (P51589 1-502 R117E): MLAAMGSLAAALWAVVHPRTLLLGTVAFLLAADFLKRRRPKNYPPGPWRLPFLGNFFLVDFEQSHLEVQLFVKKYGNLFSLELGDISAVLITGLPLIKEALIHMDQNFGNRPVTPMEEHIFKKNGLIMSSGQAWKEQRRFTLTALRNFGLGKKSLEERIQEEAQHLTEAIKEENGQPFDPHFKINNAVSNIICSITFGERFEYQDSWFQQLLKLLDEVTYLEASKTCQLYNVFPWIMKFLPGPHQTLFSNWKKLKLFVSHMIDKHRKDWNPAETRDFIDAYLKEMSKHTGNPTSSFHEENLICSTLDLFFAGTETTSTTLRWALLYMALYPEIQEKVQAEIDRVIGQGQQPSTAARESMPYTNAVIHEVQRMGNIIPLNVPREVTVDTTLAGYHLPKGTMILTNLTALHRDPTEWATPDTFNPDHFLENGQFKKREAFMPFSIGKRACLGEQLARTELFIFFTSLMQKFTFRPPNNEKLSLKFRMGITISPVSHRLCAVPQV

CYP2J2-R117K = target: T2, CYP2J2-R117K (Homo sapiens, UniProt P51589, R117K); experiment: biochemical
T2 sequence (P51589 1-502 R117K): T1 sequence (P51589 1-502 R117E) with E117K

wild type CYP2J2 = test system: wild type CYP2J2; parameters: method as in PMID 17705402; conditions: docked model, WT; values previously reported ref 50; cited from earlier work
wild-type CYP2J2 = target: T3, wild-type CYP2J2 (Homo sapiens, UniProt P51589); conditions: cited from earlier work
T3 sequence (P51589 1-502): T1 sequence (P51589 1-502 R117E) with E117R

IC50 (CYP2J2-R117E)	IC50 (CYP2J2-R117K)	Compound	Fe-C distance, α carbon of R group (wild type CYP2J2)	Fe-C distance, β carbon of R group (wild type CYP2J2)	Fe-C distance, γ carbon of R group (wild type CYP2J2)	IC50 (wild-type CYP2J2)
1 µM and 0.5 µM	1.1 ± 0.2 µM	CCCc1ccc(C(=O)CCCN2CCC(C(O)(c3ccccc3)c3ccccc3)CC2)cc1 [Compound 2]	4.9 Å	3.8 Å	4.6 Å	0.4 ± 0.1 µM
2.1 ± 0.4 µM	8.6 ± 0.2 µM	CC(C)(C)c1ccc(CCCCN2CCC(C(O)(c3ccccc3)c3ccccc3)CC2)cc1 [Compound 3]	–	–	–	3.6 ± 0.7 µM
0.5 µM and 1 µM	~1 µM	CC(C)(C)c1ccc(C(=O)CCCN2CCC(C(O)(c3ccccc3)c3ccccc3)CC2)cc1 [Terfenadone 1, Terfenadone]	–	–	–	0.7 ± 0.1 µM

Compound	IC50 (CYP2J2-R117E)	IC50 (CYP2J2-R117K)	Fe-C distance, α carbon of R group (wild type CYP2J2)	Fe-C distance, β carbon of R group (wild type CYP2J2)	Fe-C distance, γ carbon of R group (wild type CYP2J2)	IC50 (wild-type CYP2J2)
CCCc1ccc(CCCCN2CCC(C(O)(c3ccccc3)c3ccccc3)CC2)cc1 [Compound 4]	2.9 ± 0.2 µM	13.2 ± 0.1 µM	–	–	–	4.5 ± 0.9 µM
